Data from US20240059691A1 (KALVISTA PHARMACEUTICALS LIMITED, priority 2020, published 2024).

Key:
Assay type in all cases: biochemical
[1] = target: Plasma Kallikrein (Homo sapiens (Human), UniProt P03952); experiment: Determination of related protease inhibition: Plasma Kallikrein (fluorogenic substrate at Km); settings: 25° C., read-out: IC50 (human PKal)
Method in brief: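 Human enzymes incubated with varied inhibitor concentrations and fluorogenic substrate at Km. Fluorescence release followed over 5 min at 25 °C; linear rate expressed as % activity, IC50 as inhibitor concentration giving 50% inhibition of uninhibited enzyme.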

[2] = target: Human Factor XIIa (Homo sapiens (Human), UniProt P00748); experiment: Determination of FXIIa inhibition (fluorogenic substrate H-DPro-Phe-Arg-AFC, IC50 assay); settings: substrate H-DPro-Phe-Arg-AFC at Km, 25° C.; class scale A-G
Sequence of Human Factor XIIa (P00748 373-615): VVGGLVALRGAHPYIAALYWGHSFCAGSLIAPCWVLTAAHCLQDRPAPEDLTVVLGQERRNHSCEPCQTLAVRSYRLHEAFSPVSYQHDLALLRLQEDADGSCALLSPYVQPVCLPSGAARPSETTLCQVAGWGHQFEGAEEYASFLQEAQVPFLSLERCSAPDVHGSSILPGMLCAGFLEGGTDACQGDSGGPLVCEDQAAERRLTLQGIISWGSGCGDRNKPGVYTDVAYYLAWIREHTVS
Method in brief: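 Human FXIIa incubated at 25° C with fluorogenic substrate H-DPro-Phe-Arg-AFC at its Km concentration and varying compound concentrations. Fluorescence release monitored over 5 min at 25° C; linear rate expressed as % of uninhibited activity to derive IC50.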

[3] = target: KLK1 (Homo sapiens (Human), UniProt P06870); experiment: Determination of related protease inhibition: KLK1 (fluorogenic substrate at Km); settings: 25° C.
Sequence of KLK1 (P06870 25-262): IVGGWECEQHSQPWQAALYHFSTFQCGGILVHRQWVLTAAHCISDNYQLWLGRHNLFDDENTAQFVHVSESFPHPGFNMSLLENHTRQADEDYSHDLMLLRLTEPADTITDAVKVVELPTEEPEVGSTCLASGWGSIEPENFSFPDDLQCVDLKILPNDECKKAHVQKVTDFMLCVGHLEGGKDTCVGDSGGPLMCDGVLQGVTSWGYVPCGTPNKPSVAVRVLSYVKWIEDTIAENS
Method: (§1) Determination of Related Protease Inhibition
(§2) In vitro inhibition of related proteases was determined using an ([…] assay based on standard literature methods (see e.g. Shori et al., Biochem. Pharmacol., 1992, 43, 1209; Bouckaert et al., European Journal of Medicinal Chemistry 110 (2016) 181). Human serine protease enzymes Plasma Kallikrein, KLK1, FXa, Plasmin, Thrombin and Trypsin were assayed for enzymatic activity using an appropriate fluorogenic substrate at Km concentration, FXIa at fixed substrate concentration of 100 μM, and various concentrations of the test compound. Protease activity was measured by monitoring the accumulation of liberated fluorescence from the substrate over […]. The linear rate of fluorescence increase per minute was expressed as percentage (%) activity. IC50 values were calculated as the concentration of inhibitor giving 50% inhibition of the uninhibited enzyme activity (100%).

[4] = target: FXa (Homo sapiens (Human), UniProt P00742); experiment: Determination of related protease inhibition: FXa (fluorogenic substrate at Km); settings: 25° C.
Sequence of FXa (P00742 235-488): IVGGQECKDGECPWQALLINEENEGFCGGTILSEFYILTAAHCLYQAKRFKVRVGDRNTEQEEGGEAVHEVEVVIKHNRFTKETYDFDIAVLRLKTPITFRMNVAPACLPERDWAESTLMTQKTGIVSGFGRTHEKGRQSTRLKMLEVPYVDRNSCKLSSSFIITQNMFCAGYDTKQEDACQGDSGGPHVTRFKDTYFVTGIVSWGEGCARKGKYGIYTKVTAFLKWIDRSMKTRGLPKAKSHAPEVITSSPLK
Sequence of FXa (P00742 41-179 partner): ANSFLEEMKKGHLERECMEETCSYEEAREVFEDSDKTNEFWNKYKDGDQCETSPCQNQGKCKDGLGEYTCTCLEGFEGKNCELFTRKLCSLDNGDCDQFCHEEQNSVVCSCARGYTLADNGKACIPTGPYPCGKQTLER
Method: as §1, §2

[5] = target: Thrombin (Homo sapiens (Human), UniProt P00734); experiment: Determination of related protease inhibition: Thrombin (fluorogenic substrate at Km); settings: 25° C.
Method: as §1, §2

Sequence of Plasma Kallikrein (P03952 391-638): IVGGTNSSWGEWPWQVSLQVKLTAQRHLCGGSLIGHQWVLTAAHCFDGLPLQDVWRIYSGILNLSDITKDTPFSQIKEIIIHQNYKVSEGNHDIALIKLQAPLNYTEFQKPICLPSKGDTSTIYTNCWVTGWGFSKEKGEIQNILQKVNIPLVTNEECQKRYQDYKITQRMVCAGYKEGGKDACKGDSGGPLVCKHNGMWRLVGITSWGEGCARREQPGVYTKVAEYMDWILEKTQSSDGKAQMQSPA
Sequence of Plasma Kallikrein (P03952 20-390 partner): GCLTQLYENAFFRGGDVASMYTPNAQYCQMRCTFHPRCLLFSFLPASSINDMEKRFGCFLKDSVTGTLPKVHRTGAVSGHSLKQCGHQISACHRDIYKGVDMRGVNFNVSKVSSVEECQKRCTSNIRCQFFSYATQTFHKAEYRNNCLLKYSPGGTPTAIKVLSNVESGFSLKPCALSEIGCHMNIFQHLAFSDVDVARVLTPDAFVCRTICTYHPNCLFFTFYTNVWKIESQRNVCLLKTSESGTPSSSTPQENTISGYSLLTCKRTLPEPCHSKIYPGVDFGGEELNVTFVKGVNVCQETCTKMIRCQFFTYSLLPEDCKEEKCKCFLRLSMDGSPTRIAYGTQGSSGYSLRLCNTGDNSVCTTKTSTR

IC50 [1] | IC50 [2] | IC50 [3] | IC50 [4] | IC50 [5] | SMILES
10 to 40 µM | 0.3 to 1 µM | 3 to 10 µM | 10 to 40 µM | 10 to 40 µM | Nc1nccc2c(NCc3ccc(OCC4CCn5ccnc5C4)nc3)cccc12 (single isomer, unassigned) [Example 1030, (S*)-N5-((6-((5,6,7,8-tetrahydroimidazo[1,2-a]pyridin-7-yl)methoxy)pyridin-3-yl)methyl)isoquinoline-1,5-diamine]
3 to 10 µM | 0.01 to 0.1 µM | 0.3 to 1 µM | 0.1 to 0.3 µM | 0.3 to 1 µM | Nc1nccc2cc(NCc3ccnc(OCC4CCn5ccnc5C4)c3)ccc12 (single isomer, unassigned) [Example 4267, 6-N-({2-[(7S*)-5H,6H,7H,8H-imidazo[1,2-a]pyridin-7-ylmethoxy]pyridin-4-yl}methyl)isoquinoline-1,6-diamine]
1 to 3 µM | 0.01 to 0.1 µM | 0.3 to 1 µM | 3 to 10 µM | 3 to 10 µM | CN1CCC(CNc2ccc(CNc3ccc4c(N)nccc4c3)cn2)CC1 [Example 1033, N6-((6-(((1-methylpiperidin-4-yl)methyl)amino)pyridin-3-yl)methyl)isoquinoline-1,6-diamine]
> 40 µM | 10 to 40 µM | 10 to 40 µM | > 40 µM | > 40 µM | Nc1nccc2c(NCc3ccc(CN4CCOCC4)cc3F)cccc12 [Example 1034, 5-N-{[2-fluoro-4-(morpholin-4-ylmethyl)phenyl]methyl}isoquinoline-1,5-diamine]
> 40 µM | 3 to 10 µM | 10 to 40 µM | > 40 µM | > 40 µM | Cn1ccnc1CCCOc1ncc(CNc2cccc3c(N)nccc23)cn1 [Example 1035, N5-((2-(3-(1-methyl-1H-imidazol-2-yl)propoxy)pyrimidin-5-yl)methyl)isoquinoline-1,5-diamine]
10 to 40 µM | 0.3 to 1 µM | 10 to 40 µM | > 40 µM | > 40 µM | CC(C)N1CC2(CN(Cc3ccc(CNc4cccc5c(N)nccc45)c(F)c3)C2)C1 [Example 1036, N5-(2-fluoro-4-((6-isopropyl-2,6-diazaspiro[3.3]heptan-2-yl)methyl)benzyl)isoquinoline-1,5-diamine]
> 40 µM | 3 to 10 µM | 10 to 40 µM | 10 to 40 µM | 10 to 40 µM | CN1CCC(CNc2ccc(CNc3ccnc(N)c3)cn2)CC1 [Example 1096, N4-((6-(((1-methylpiperidin-4-yl)methyl)amino)pyridin-3-yl)methyl)pyridine-2,4-diamine]
> 40 µM | 0.1 to 0.3 µM | > 40 µM | 10 to 40 µM | 10 to 40 µM | Cc1cc2c(NCc3ccc(NCC4CCN(C)CC4)nc3)ccnc2[nH]1 [Example 1202, 2-Methyl-N-((6-(((1-methylpiperidin-4-yl)methyl)amino)pyridin-3-yl)methyl)-1H-pyrrolo[2,3-b]pyridin-4-amine]
> 40 µM | 3 to 10 µM | > 40 µM | > 40 µM | > 40 µM | CN1CCC(CNc2ccc(CNc3ccc4cnccc4c3Cl)cn2)CC1 [Example 1209, 5-chloro-N-((6-(((1-methylpiperidin-4-yl)methyl)amino)pyridin-3-yl)methyl)isoquinolin-6-amine]
10 to 40 µM | 3 to 10 µM | > 100 µM | > 40 µM | 10 to 40 µM | CN1CCC(CNc2ccc(CNc3cncc4[nH]ccc34)cn2)CC1 [Example 1213, N-((6-(((1-methylpiperidin-4-yl)methyl)amino)pyridin-3-yl)methyl)-1H-pyrrolo[2,3-c]pyridin-4-amine]
> 40 µM | 3 to 10 µM | > 40 µM | > 40 µM | > 100 µM | CN1CCC(CNc2ccc(CNc3ccc4cnccc4c3F)cn2)CC1 [Example 1224, 5-fluoro-N-((6-(((1-methylpiperidin-4-yl)methyl)amino)pyridin-3-yl)methyl)isoquinolin-6-amine]
> 40 µM | 1 to 3 µM | 3 to 10 µM | > 40 µM | > 40 µM | COc1nnc2n1CCN(c1ccc(CNc3cccc4c(N)nccc34)cn1)C2 [Example 1250, N5-((6-(3-methoxy-5,6-dihydro-[1,2,4]triazolo[4,3-a]pyrazin-7(8H)-yl)pyridin-3-yl)methyl)isoquinoline-1,5-diamine]
10 to 40 µM | 0.01 to 0.1 µM | 10 to 40 µM | 1 to 3 µM | 3 to 10 µM | CN1CCC(CNc2ccc(CNc3cncc4[nH]c(Cl)cc34)cn2)CC1 [Example 1251, 2-Chloro-N-((6-(((1-methylpiperidin-4-yl)methyl)amino)pyridin-3-yl)methyl)-1H-pyrrolo[2,3-c]pyridin-4-amine]
> 40 µM | 0.3 to 1 µM | 3 to 10 µM | > 40 µM | > 40 µM | Nc1nccc2c(NCc3ccc(N4CCn5c(nnc5C(F)(F)F)C4)nc3)cccc12 [Example 1275, N5-((6-(3-(trifluoromethyl)-5,6-dihydro-[1,2,4]triazolo[4,3-a]pyrazin-7(8H)-yl)pyridin-3-yl)methyl)isoquinoline-1,5-diamine]
> 40 µM | 0.1 to 0.3 µM | 3 to 10 µM | > 40 µM | > 40 µM | Cc1nnc2n1CCN(c1ccc(CNc3cccc4c(N)nccc34)cn1)C2 [Example 1279, N5-((6-(3-methyl-5,6-dihydro-[1,2,4]triazolo[4,3-a]pyrazin-7(8H)-yl)pyridin-3-yl)methyl)isoquinoline-1,5-diamine]
> 40 µM | 1 to 3 µM | 10 to 40 µM | > 40 µM | – | Nc1nccc2c(NCc3ccc(N4CCn5c(nnc5C(F)(F)F)C4)nc3C(F)(F)F)cccc12 [Example 1298, N5-((2-(trifluoromethyl)-6-(3-(trifluoromethyl)-5,6-dihydro-[1,2,4]triazolo[4,3-a]pyrazin-7(8H)-yl)pyridin-3-yl)methyl)isoquinoline-1,5-diamine]
> 40 µM | 0.01 to 0.1 µM | 3 to 10 µM | > 40 µM | – | Nc1nccc2c(NCc3cnc(N4CCn5c(nnc5C(F)(F)F)C4)cc3Cl)cccc12 [Example 1299, N5-((4-Chloro-6-(3-(trifluoromethyl)-5,6-dihydro-[1,2,4]triazolo[4,3-a]pyrazin-7(8H)-yl)pyridin-3-yl)methyl)isoquinoline-1,5-diamine]
> 40 µM | 0.1 to 0.3 µM | 3 to 10 µM | > 40 µM | – | Nc1nccc2c(NCc3ccc(N4CCn5c(nnc5C(F)(F)F)C4)cc3)cccc12 [Example 1300, N5-(4-(3-(trifluoromethyl)-5,6-dihydro-[1,2,4]triazolo[4,3-a]pyrazin-7(8H)-yl)benzyl)isoquinoline-1,5-diamine]
> 40 µM | 0.1 to 0.3 µM | 3 to 10 µM | > 40 µM | – | Nc1nccc2c(NCc3cnc(N4CCn5c(nnc5C(F)(F)F)C4)cc3C(F)(F)F)cccc12 [Example 1301, N5-((4-(trifluoromethyl)-6-(3-(trifluoromethyl)-5,6-dihydro-[1,2,4]triazolo[4,3-a]pyrazin-7(8H)-yl)pyridin-3-yl)methyl)isoquinoline-1,5-diamine]
10 to 40 µM | 10 to 40 µM | 1 to 3 µM | > 40 µM | – | Cc1cc(CNc2cccc3c(N)nccc23)cnc1N1CCn2c(nnc2C(F)(F)F)C1 [Example 1302, N5-((5-methyl-6-(3-(trifluoromethyl)-5,6-dihydro-[1,2,4]triazolo[4,3-a]pyrazin-7(8H)-yl)pyridin-3-yl)methyl)isoquinoline-1,5-diamine]
– | 0.1 to 0.3 µM | 0.3 to 1 µM | 1 to 3 µM | 0.3 to 1 µM | CN1CCC(COc2cc(CNc3ccc4c(N)nccc4c3)cc(C(F)(F)F)n2)CC1 [Example 4265, N6-((2-((1-methylpiperidin-4-yl)methoxy)-6-(trifluoromethyl)pyridin-4-yl)methyl)isoquinoline-1,6-diamine]
> 40 µM | 0.1 to 0.3 µM | 3 to 10 µM | > 40 µM | – | Nc1nccc2c(NCc3ccc(N4CCn5c(nnc5C(F)(F)F)C4)cn3)cccc12 [Example 9001, N5-((5-(3-(trifluoromethyl)-5,6-dihydro-[1,2,4]triazolo[4,3-a]pyrazin-7(8H)-yl)pyridin-2-yl)methyl)isoquinoline-1,5-diamine]
> 40 µM | 0.1 to 0.3 µM | > 40 µM | > 40 µM | – | Cc1cc(N2CCn3c(nnc3C(F)(F)F)C2)nc(C)c1CNc1cccc2c(N)nccc12 [Example 9006, N5-((2,4-dimethyl-6-(3-(trifluoromethyl)-5,6-dihydro-[1,2,4]triazolo[4,3-a]pyrazin-7(8H)-yl)pyridin-3-yl)methyl)isoquinoline-1,5-diamine]
